Read-outs that look alike come from different tables or passages of the source.
Key:
[1] = tested on: SNB-19; assay: NCI in-vitro testing, SNB-19 (CNS Cancer)
[2] = tested on: SNB-75; assay: NCI in-vitro testing, SNB-75 (CNS Cancer)
[3] = tested on: Sw620; assay: Cell viability, Sw620 colon cancer cells; assay type: cell-based, human; conditions: Homo sapiens, SW-620; Sw620, Colon; read-out: IC50 (−LogM) (converted)
[4] = tested on: NCI/ADR-RES; assay: NCI in-vitro testing, NCI/ADR-RES (Breast Cancer)
[5] = tested on: HOP-62; assay: NCI in-vitro testing, HOP-62 (Non-Small Cell Lung Cancer)
[6] = tested on: HCT-15; assay: NCI in-vitro testing, HCT-15 (Colon Cancer)
[7] = tested on: CAKI-1; assay: NCI in-vitro testing, CAKI-1 (Renal Cancer); conditions: for Percent Growth: CAK1-1
[8] = tested on: HOP-92; assay: NCI in-vitro testing, HOP-92 (Non-Small Cell Lung Cancer)
[9] = tested on: 786-0; assay: NCI in-vitro testing, 786-0 (Renal Cancer)
[10] = tested on: MOLT-4; assay: NCI in-vitro testing, MOLT-4 (Leukemia)
[11] = tested on: OVCAR-4; assay: NCI in-vitro testing, OVCAR-4 (Ovarian Cancer)

SMILES: OCc1cn(Cc2ccc(Cl)cc2)c2ccccc12 [Oncrasin K060, 1H-Indole-3-methanol, 1-[(4-chlorophenyl)methyl]-]
- GI50 ([1]; Homo sapiens, SNB-19): 17.6 µM
- CC50 ([1]; Homo sapiens, SNB-19, read-out: LC50): > 100 µM
- GI50 ([1]; Homo sapiens, SNB-19, read-out: Log10 GI50 (converted)): 17.8 µM
- TGI ([1]; SNB-19): 5.69E−5 Molar
- Percent Growth ([1]; SNB-19, Log10 Concentration −4.0 Molar): −24%
- Percent Growth ([1]; SNB-19, Log10 Concentration −5.0 Molar): 74%
- Percent Growth ([1]; SNB-19, Log10 Concentration −6.0 Molar): 91%
- Percent Growth ([1]; SNB-19, Log10 Concentration −7.0 Molar): 97%
- Percent Growth ([1]; SNB-19, Log10 Concentration −8.0 Molar): 103%
- GI50 ([2]; Homo sapiens, SNB-75): 76.4 µM
- CC50 ([2]; Homo sapiens, SNB-75, read-out: LC50): 62.8 µM
- GI50 ([2]; Homo sapiens, SNB-75, read-out: Log10 GI50 (converted)): 7.59 µM
- TGI ([2]; SNB-75): 2.31E−5 Molar
- Percent Growth ([2]; SNB-75, Log10 Concentration −4.0 Molar): −73%
- Percent Growth ([2]; SNB-75, Log10 Concentration −5.0 Molar): 42%
- Percent Growth ([2]; SNB-75, Log10 Concentration −6.0 Molar): 112%
- Percent Growth ([2]; SNB-75, Log10 Concentration −7.0 Molar): 119%
- Percent Growth ([2]; SNB-75, Log10 Concentration −8.0 Molar): 118%
- IC50 [3]: 5.01 µM
- TGI [4]: 3.32E−5 Molar
- GI50 ([4]; Homo sapiens): 9.22 µM
- CC50 ([4]; Homo sapiens, read-out: LC50): > 100 µM
- GI50 ([4]; Homo sapiens, read-out: Log10 GI50 (converted)): 9.12 µM
- Percent Growth ([4]; Log10 Concentration −4.0 Molar): −45%
- Percent Growth ([4]; Log10 Concentration −5.0 Molar): 49%
- Percent Growth ([4]; Log10 Concentration −6.0 Molar): 86%
- Percent Growth ([4]; Log10 Concentration −7.0 Molar): 94%
- Percent Growth ([4]; Log10 Concentration −8.0 Molar): 103%
- TGI ([5]; HOP-62): 1.93E−5 Molar
- Percent Growth ([5]; HOP-62, Log10 Concentration −4.0 Molar): −37%
- Percent Growth ([5]; HOP-62, Log10 Concentration −5.0 Molar): 15%
- Percent Growth ([5]; HOP-62, Log10 Concentration −6.0 Molar): 36%
- Percent Growth ([5]; HOP-62, Log10 Concentration −7.0 Molar): 07%
- Percent Growth ([5]; HOP-62, Log10 Concentration −8.0 Molar): 91%
- GI50 ([5]; Homo sapiens, HOP-62): 0.3 µM
- CC50 ([5]; Homo sapiens, HOP-62, read-out: LC50): > 100 µM
- GI50 ([5]; Homo sapiens, HOP-62, read-out: Log10 GI50 (converted)): 0.363 µM
- TGI ([6]; HCT-15): 2.58E−5 Molar
- Percent Growth ([6]; HCT-15, Log10 Concentration −4.0 Molar): −31%
- Percent Growth ([6]; HCT-15, Log10 Concentration −5.0 Molar): 21%
- Percent Growth ([6]; HCT-15, Log10 Concentration −6.0 Molar): 69%
- Percent Growth ([6]; HCT-15, Log10 Concentration −7.0 Molar): 90%
- Percent Growth ([6]; HCT-15, Log10 Concentration −8.0 Molar): 99%
- GI50 ([6]; Homo sapiens, HCT-15): 2.52 µM
- CC50 ([6]; Homo sapiens, HCT-15, read-out: LC50): > 100 µM
- GI50 ([6]; Homo sapiens, HCT-15, read-out: Log10 GI50 (converted)): 2.51 µM
- Percent Growth ([7]; Log10 Concentration −4.0 Molar): 1%
- Percent Growth ([7]; Log10 Concentration −5.0 Molar): −47%
- Percent Growth ([7]; Log10 Concentration −6.0 Molar): −21%
- Percent Growth ([7]; Log10 Concentration −7.0 Molar): −3%
- Percent Growth ([7]; Log10 Concentration −8.0 Molar): 1%
- GI50 ([7]; Homo sapiens, CAKI-1): < 0.01 µM
- CC50 ([7]; Homo sapiens, CAKI-1, read-out: LC50): > 100 µM
- GI50 ([7]; Homo sapiens, CAKI-1, read-out: Log10 GI50 (converted)): < 0.01 µM
- TGI ([8]; HOP-92): 2.39E−5 Molar
- Percent Growth ([8]; HOP-92, Log10 Concentration −4.0 Molar): −60%
- Percent Growth ([8]; HOP-92, Log10 Concentration −5.0 Molar): 34%
- Percent Growth ([8]; HOP-92, Log10 Concentration −6.0 Molar): 88%
- Percent Growth ([8]; HOP-92, Log10 Concentration −7.0 Molar): 81%
- Percent Growth ([8]; HOP-92, Log10 Concentration −8.0 Molar): 97%
- GI50 ([8]; Homo sapiens, HOP-92): 5.17 µM
- CC50 ([8]; Homo sapiens, HOP-92, read-out: LC50): 77.6 µM
- GI50 ([8]; Homo sapiens, HOP-92, read-out: Log10 GI50 (converted)): 5.13 µM
- TGI ([9]; 786-0): 2.19E−5 Molar
- Percent Growth ([9]; 786-0, Log10 Concentration −4.0 (Molar)): −52%
- Percent Growth ([9]; 786-0, Log10 Concentration −5.0 (Molar)): 27%
- Percent Growth ([9]; 786-0, Log10 Concentration −6.0 (Molar)): 76%
- Percent Growth ([9]; 786-0, Log10 Concentration −7.0 (Molar)): 88%
- Percent Growth ([9]; 786-0, Log10 Concentration −8.0 (Molar)): 99%
- GI50 ([9]; Homo sapiens, 786-0): 34 µM
- CC50 ([9]; Homo sapiens, 786-0, read-out: LC50): 94.7 µM
- GI50 ([9]; Homo sapiens, 786-0, read-out: Log10 GI50 (converted)): 3.39 µM
- GI50 ([10]; Homo sapiens, MOLT-4): 17.7 µM
- CC50 ([10]; Homo sapiens, MOLT-4, read-out: LC50): 82.8 µM
- GI50 ([10]; Homo sapiens, MOLT-4, read-out: Log10 GI50 (converted)): 17.8 µM
- TGI ([10]; MOLT-4): 3.82E−5 Molar
- Percent Growth ([10]; MOLT-4, Log10 Concentration −4.0 Molar): −62%
- Percent Growth ([10]; MOLT-4, Log10 Concentration −5.0 Molar): 87%
- Percent Growth ([10]; MOLT-4, Log10 Concentration −6.0 Molar): 109%
- Percent Growth ([10]; MOLT-4, Log10 Concentration −7.0 Molar): 102%
- Percent Growth ([10]; MOLT-4, Log10 Concentration −8.0 Molar): 114%
- GI50 ([11]; Homo sapiens, OVCAR-4): 0.34 µM
- CC50 ([11]; Homo sapiens, OVCAR-4, read-out: LC50): > 100 µM
- GI50 ([11]; Homo sapiens, OVCAR-4, read-out: Log10 GI50 (converted)): 0.339 µM
- TGI ([11]; OVCAR-4): 1.80E−5 Molar
- Percent Growth ([11]; OVCAR-4, Log10 Concentration −4.0 Molar): −29%
- Percent Growth ([11]; OVCAR-4, Log10 Concentration −5.0 Molar): 10%
- Percent Growth ([11]; OVCAR-4, Log10 Concentration −6.0 Molar): 31%
- Percent Growth ([11]; OVCAR-4, Log10 Concentration −7.0 Molar): 71%
- Percent Growth ([11]; OVCAR-4, Log10 Concentration −8.0 Molar): 94%

From US8883841B2, “Oncogenic ras-specific cytotoxic compound and methods of use thereof” (The Board of Regents of the University of Texas System, priority 2005, dated 2014)
